These results are taken from patent US20240173403A1, “Combination of AXL Antibodies and ACE Inhibitors in the Treatment of Fibrosis” (BERGENBIO ASA, priority 2021, published 2024).

“Also recorded” adds a separate entry of the source. Like-named read-outs stand apart in the source and are kept apart here.

The test system of one assay is Collagen 1a1. Description: Collagen 1a1 levels in human PCKS culture supernatants (ELISA). Format: cell-based. On the procedure: (§1) PCKS were prepared from explanted kidney tissue and rested for 24 hours to allow the post-slicing stress period to elapse before experiments began. All PCKS were harvested at 96 hrs.
(§2) PCKS were incubated for a 24 hr rest period. Post-rest, PCKS were incubated for a further 72 hrs in the presence or absence of inhibitors. PCKS culture media, including all compounds, was refreshed and harvested at 24 hrs intervals. All PCKS were harvested at 96 hrs.
(§3) Tissue culture supernatant (n=3 paired wells) were collected every 24 hrs and snap frozen for quantification of soluble outputs. At 96 hrs n=4 PCKS were snap frozen for RNA extraction and n=2 PCKS were formalin fixed paraffin embedded (FFPE) for IHC.
(§4) Levels of collagen 1a1, IL-6, Hyaluronic Acid and TIMP-1 in the tissue culture supernatants (n=165 samples per donor) were quantified using R&D Duoset ELISA kits.
Levels of collagen 1a1 in the tissue culture supernatants were quantified using R&D Duoset ELISA kits.

In a further assay the test system is lung fibrosis. The conditions noted are these: two mouse lung fibrosis models; Espindola et al. 2018; cited from earlier work.
For assay [1], the system named is αSMA (activated myofibroblasts). Nature of the assay: α-SMA staining of PCKS sections, % area positive. Format: cell-based, human. To be noted: 96 hrs harvest. On the procedure:
as §1, §3
FFPE tissue was cut into 5 μm sections and stained for Picrosirius Red and α-Smooth Muscle Actin (αSMA) (n=19 samples per donor). Analysis was performed by a pathology trained technical staff member without knowledge of the sample ID. High magnification images were taken of each slide and analysed for the surface area covered by the stain (e.g. percentage area positive for Oil Red O, Picrosirius or αSMA).
α-SMA stained PCKS sections were prepared. Up to 25 high magnification images (×20) from each PCKS were quantified for the percentage area of tissue positive for stain and averaged to give a mean tissue area positive for α-SMA.
Histological effects of treatments were assessed on the basis of changes in percentage positive area stained for αSMA (activated myofibroblasts) and Picrosirius Red (collagen deposition).

In another assay the test system is IL-6. Description: IL-6 levels in human PCKS culture supernatants (ELISA). The format is cell-based. The conditions noted are these: two of the high doses of Bemcentinib; early time point (48 hrs). On the procedure:
as §1, §2, §3, §4
(In general: An ELISA detects its analyte on a solid surface through an enzyme-linked reagent.)

In another assay the test system is kidney fibrosis. The conditions noted are these: UUO mice, bemcentinib monotherapy, Landolt et al. 2019, cited from earlier work.
Another assay deals with TIMP-1. Nature of the assay: TIMP-1 levels in human PCKS culture supernatants (ELISA). Format: cell-based. As to the method:
as §1, §2, §3, §4

The next assay has as its system liver fibrosis. To be noted: mice; Barcena et al. 2015; cited from earlier work.
The test system of a further assay is Hyaluronic Acid. Description: Hyaluronic Acid levels in human PCKS culture supernatants (ELISA). The format is cell-based. The conditions noted are these: Nintedanib 4 μM. On the procedure:
as §1, §2, §3, §4

Where [2] appears, read: Enalapril alone (0.75, 0.15 μM).
Where [3] appears, read: 4 μM, 72 hrs and 96 hrs of treatment, positive control.
Setting [4] is: Tilvestamab monotherapy (1 to 125 μg/mL).

On to `Nc1nc(Nc2ccc3c(c2)CC[C@@H](N2CCCC2)CC3)nn1-c1cc2c(nn1)-c1ccccc1CCC2` [Bemcentinib, 1-(6,7-dihydro-5H-benzo[6,7]cyclohepta[1,2-c]pyridazin-3-yl)-N^3-((7-(S)-pyrrolidin-1-yl)-6,7,8,9-tetrahydro-5H-benzo[7]annulene-2-yl)-1H-1,2,4-triazole-3,5-diamine], for which, in the assay on Collagen 1a1 (Bemcentinib monotherapy, all doses (0.11, 0.33, 1, 3 μM), not dose dependent), the “Collagen 1a1 production” value is “able to reduce production of the fibrotic markers Collagen 1a1 and TIMP-1 at all doses”. Besides, the “fibrosis development in lung” value in the assay on lung fibrosis is recorded as “reduction in fibrosis development”. The “αSMA, percentage positive area” value in assay [1] (Bemcentinib singly, 3 μM) is on record as “reduce expression of the fibrotic marker αSMA; also recorded: reduced”. In the assay on IL-6, the IL-6 secretion entry is recorded as “spike in IL-6 secretion”. Moreover, the “fibrosis development in kidney” value in the assay on kidney fibrosis was “attenuate fibrosis and reduce inflammation”; in the assay on kidney fibrosis (listed as bemcentinib), “less fibrosis development”. For the same molecule, in the assay on TIMP-1 (Bemcentinib monotherapy, all doses (0.11, 0.33, 1, 3 μM)), the TIMP-1 production result was “able to reduce production of the fibrotic markers Collagen 1a1 and TIMP-1 at all doses”. For the same molecule, the liver fibrosis result in the assay on liver fibrosis was “reduced liver fibrosis”.
Regarding `CCOC(=O)[C@H](CCc1ccccc1)N[C@@H](C)C(=O)N1CCC[C@H]1C(=O)O` [Enalapril], the “Collagen 1a1 secretion” value with Collagen 1a1 (setting [2]) is on record as “did not show any efficacy towards reducing Collagen 1a1 secretion”. The “αSMA, percentage positive area” value in assay [1] (Enalapril singly, 0.15 μM) is reported as “reduced”; in assay [1] (Enalapril singly, 0.15 μM, listed as Enalaril), “reduce expression of the fibrotic marker αSMA”. Besides, the TIMP-1 secretion result with TIMP-1 (setting [2]) is recorded as “did not show any efficacy towards reducing TIMP-1 secretion”.
For the molecule `COC(=O)c1ccc2c(c1)NC(=O)/C2=C(\Nc1ccc(N(C)C(=O)CN2CCN(C)CC2)cc1)c1ccccc1` [Nintedanib], in the assay on Collagen 1a1 (setting [3]), the “Collagen 1a1 production” value is recorded as “inhibited Collagen 1a1 production”. Moreover, the TIMP-1 production entry with TIMP-1 (setting [3]) was “significantly inhibit TIMP-1 production”. Moreover, the Hyaluronic acid entry in the assay on Hyaluronic Acid was “readily reduced”.

B1: Tilvestamab: novel humanized anti-AXL antibody that blocks GAS6-mediated AXL receptor activation; VH SEQ ID No.1, VL SEQ ID No.2 (antibody, V domains shown)
VH: EVQLVESGGGLVQPGGSLRLSCAASGYSFTDFYINWVRQAPGKGLEWVARIFPGGDNTYYNEKFKGRFTLSADTSKSTAYLQMNSLRAEDTAVYYCARRGLYYAMDYWGQGTLVTVSS
VL: DIQMTQSPSSLSASVGDRVTITCRSSQSLVHSNGIPYLHWYQQKPGKAPKLLIYRVSNRFSGVPSRFSGSGSGTDFTLTISSLQPEDFATYYCSQGTHVPPTFGQGTKVEIK
modifications: BGB149 VH; BGB149 VL
B1: the “Collagen 1a1 secretion” value with Collagen 1a1 (setting [4]) is recorded as “no effect on reducing Collagen 1a1 or TIMP-1 secretion; also recorded: no effect on reducing Collagen 1a1 secretion”. Moreover, the “αSMA, percentage positive area” value in assay [1] (Tilvestamab singly, three of the highest doses) is recorded as “did reduce αSMA; also recorded: reduced”. Besides, the TIMP-1 secretion result with TIMP-1 (setting [4]) is “no effect on reducing Collagen 1a1 or TIMP-1 secretion; also recorded: no effect on reducing TIMP-1 secretion”.
